The results in this text go back to patent publication US20220151236A1, “NOVEL OXADIAZOLE COMPOUNDS FOR CONTROLLING OR PREVENTING PHYTOPATHOGENIC FUNGI” (PI INDUSTRIES LTD., priority 2019, published 2022).

Bounds are passed on as bounds.

The test deals with Phakopsora pachyrhizi. The experiment in a line: Phakopsora pachyrhizi Test on Soybean (preventive activity, greenhouse). Type of test: in vivo. The note with it: preventive spray on young Soybean plants, inoculated one day after treatment, rated 3, 7, 10 and 15 days after application, read-out: Efficacy (% control), disease severity compared to the untreated check. The protocol: Compounds were dissolved in 2% dimethyl sulfoxide/acetone and then mixed with water containing an emulsifier to a calibrated spray volume of 50 mL. This 50 mL spray solution was poured into spray bottles for further applications. To test the preventive activity of compounds, healthy young Soybean plants raised in the greenhouse were sprayed with the active compound preparation at the stated application rates inside the spray cabinets using hollow cone nozzles. One day after treatment, the plants were inoculated with a spore suspension containing 2×10^5 Phakopsora pachyrhizi conidia. The inoculated plants were then kept in a greenhouse chamber at 22-24° C. temperature and 80-90% relative humidity for disease expression. A visual assessment of the compound's performance was carried out by rating the disease severity (0-100% scale) on treated plants 3, 7, 10 and 15 days after application. Efficacy (% control) of the compounds was calculated by comparing the disease rating in the treatment with the one of the untreated control. The sprayed plants were also assessed for plant compatibility by recording symptoms like necrosis, chlorosis and stunting.
Consider `O=C(Nc1ccc(Cl)cc1)c1cn2ccc(-c3noc(C(F)(F)F)n3)cc2n1` [Compound 6, N-(4-chlorophenyl)-7-(5-(trifluoromethyl)-1,2,4-oxadiazol-3-yl)imidazo[1,2-a]pyridine-2-carboxamide], for which the pest or weed control at 500 ppm is at least 70%.
In the case of `COc1ccc(S(=N)(=O)Cc2cn3ccc(-c4noc(C(F)(F)F)n4)cc3n2)cc1` (stereo not drawn) [Compound 165, imino(4-methoxyphenyl)((7-(5-(trifluoromethyl)-1,2,4-oxadiazol-3-yl)imidazo[1,2-a]pyridin-2-yl)methyl)-λ^6-sulfanone], the pest or weed control at 500 ppm is at least 70%.
`CC(C)CNC(=O)c1cn2ccc(-c3noc(C(F)(F)F)n3)cc2n1` [Compound 35, N-isobutyl-7-(5-(trifluoromethyl)-1,2,4-oxadiazol-3-yl)imidazo[1,2-a]pyridine-2-carboxamide]: the pest or weed control at 500 ppm was at least 70%.
As to `COc1ccc(SCc2cn3cc(-c4noc(C(F)(F)F)n4)ccc3n2)cc1` [Compound 100, 3-(2-(((4-methoxyphenyl)thio)methyl)imidazo[1,2-a]pyridin-6-yl)-5-(trifluoromethyl)-1,2,4-oxadiazole], the pest or weed control at 500 ppm is at least 70%.
Regarding `Fc1ccc(SCc2cn3cc(-c4noc(C(F)(F)F)n4)ccc3n2)cc1` [Compound 105, 3-(2-(((4-fluorophenyl)thio)methyl)imidazo[1,2-a]pyridin-6-yl)-5-(trifluoromethyl)-1,2,4-oxadiazole], the pest or weed control at 500 ppm is at least 70%.
Turning to `COc1ccc(NC(=O)c2cn3cc(-c4noc(C(F)(F)F)n4)ccc3n2)cc1` [Compound 22, N-(4-methoxyphenyl)-6-(5-(trifluoromethyl)-1,2,4-oxadiazol-3-yl)imidazo[1,2-a]pyridine-2-carboxamide], the pest or weed control at 500 ppm was at least 70%.
With `O=C(NCc1ccccc1)c1cn2ccc(-c3noc(C(F)(F)F)n3)cc2n1` [Compound 10, N-benzyl-7-(5-(trifluoromethyl)-1,2,4-oxadiazol-3-yl)imidazo[1,2-a]pyridine-2-carboxamide], the pest or weed control at 500 ppm was at least 70%.
Turning to `O=C(Nc1ccc(Cl)cc1F)c1cn2cc(-c3noc(C(F)(F)F)n3)ccc2n1` [Compound 26, N-(4-chloro-2-fluorophenyl)-6-(5-(trifluoromethyl)-1,2,4-oxadiazol-3-yl)imidazo[1,2-a]pyridine-2-carboxamide], the pest or weed control at 500 ppm was at least 70%.
Turning to `COc1ccc(CSCc2cn3cc(-c4noc(C(F)(F)F)n4)ccc3n2)cc1` [Compound 109, 3-(2-(((4-methoxybenzyl)thio)methyl)imidazo[1,2-a]pyridin-6-yl)-5-(trifluoromethyl)-1,2,4-oxadiazole], the pest or weed control at 500 ppm is at least 70%.
With `O=C(Nc1ccc(Cl)cc1)c1cn2cc(-c3noc(C(F)(F)F)n3)ccc2n1` [Compound 18, N-(4-chlorophenyl)-6-(5-(trifluoromethyl)-1,2,4-oxadiazol-3-yl)imidazo[1,2-a]pyridine-2-carboxamide], the pest or weed control at 500 ppm is at least 70%.
For the compound `COc1ccc(C(=O)NCc2cn3cc(-c4noc(C(F)(F)F)n4)ccc3n2)cc1` [Compound 82, 4-methoxy-N-((6-(5-(trifluoromethyl)-1,2,4-oxadiazol-3-yl)imidazo[1,2-a]pyridin-2-yl)methyl)benzamide], the pest or weed control at 500 ppm is at least 70%.
For `O=C(Nc1ccccc1F)c1cn2cc(-c3noc(C(F)(F)F)n3)ccc2n1` [Compound 20, N-(2-fluorophenyl)-6-(5-(trifluoromethyl)-1,2,4-oxadiazol-3-yl)imidazo[1,2-a]pyridine-2-carboxamide], the pest or weed control at 500 ppm is at least 70%.
For `CN(C)c1ccc(CNC(=O)c2cn3ccc(-c4noc(C(F)(F)F)n4)cc3n2)cc1` [Compound 43, N-(4-(dimethylamino)benzyl)-7-(5-(trifluoromethyl)-1,2,4-oxadiazol-3-yl)imidazo[1,2-a]pyridine-2-carboxamide], the pest or weed control at 500 ppm was at least 70%.
Turning to `O=C(Nc1cccnc1)c1cn2ccc(-c3noc(C(F)(F)F)n3)cc2n1` [Compound 9, N-(pyridin-3-yl)-7-(5-(trifluoromethyl)-1,2,4-oxadiazol-3-yl)imidazo[1,2-a]pyridine-2-carboxamide], the pest or weed control at 500 ppm was at least 70%.
`Cc1ccc(NC(=O)c2cn3cc(-c4noc(C(F)(F)F)n4)ccc3n2)cc1` [Compound 19, N-(p-tolyl)-6-(5-(trifluoromethyl)-1,2,4-oxadiazol-3-yl)imidazo[1,2-a]pyridine-2-carboxamide]: the pest or weed control at 500 ppm was at least 70%.
In the case of `Fc1cccc(SCc2cn3cc(-c4noc(C(F)(F)F)n4)ccc3n2)c1` [Compound 104, 3-(2-(((3-fluorophenyl)thio)methyl)imidazo[1,2-a]pyridin-6-yl)-5-(trifluoromethyl)-1,2,4-oxadiazole], the pest or weed control at 500 ppm was at least 70%.
`N=S(=O)(Cc1cn2ccc(-c3noc(C(F)(F)F)n3)cc2n1)c1ccccc1` (stereo not drawn) [Compound 164, imino(phenyl)((7-(5-(trifluoromethyl)-1,2,4-oxadiazol-3-yl)imidazo[1,2-a]pyridin-2-yl)methyl)-λ^6-sulfanone]: the pest or weed control at 500 ppm was at least 70%.
To `COc1cccc(NC(=O)c2cn3ccc(-c4noc(C(F)(F)F)n4)cc3n2)c1` [Compound 1, N-(3-methoxyphenyl)-7-(5-(trifluoromethyl)-1,2,4-oxadiazol-3-yl)imidazo[1,2-a]pyridine-2-carboxamide] belongs at least 70%; to `N#CC1(NC(=O)c2cn3cc(-c4noc(C(F)(F)F)n4)ccc3n2)CC1` [Compound 73, N-(1-cyanocyclopropyl)-6-(5-(trifluoromethyl)-1,2,4-oxadiazol-3-yl)imidazo[1,2-a]pyridine-2-carboxamide], at least 70%; to `COc1ccc(CS(=O)(=O)Cc2cn3cc(-c4noc(C(F)(F)F)n4)ccc3n2)cc1` [Compound 122, 3-(2-(((4-methoxybenzyl)sulfonyl)methyl)imidazo[1,2-a]pyridin-6-yl)-5-(trifluoromethyl)-1,2,4-oxadiazole], at least 70%.
As to `COc1ccccc1NC(=O)c1cn2cc(-c3noc(C(F)(F)F)n3)ccc2n1` [Compound 28, N-(2-methoxyphenyl)-6-(5-(trifluoromethyl)-1,2,4-oxadiazol-3-yl)imidazo[1,2-a]pyridine-2-carboxamide], the pest or weed control at 500 ppm is at least 70%.
As for `O=C(Nc1cccnc1)c1cn2cc(-c3noc(C(F)(F)F)n3)ccc2n1` [Compound 29, N-(pyridin-3-yl)-6-(5-(trifluoromethyl)-1,2,4-oxadiazol-3-yl)imidazo[1,2-a]pyridine-2-carboxamide], the pest or weed control at 500 ppm was at least 70%.
`O=S(=O)(Cc1cn2cc(-c3noc(C(F)(F)F)n3)ccc2n1)c1ccc(F)cc1` [Compound 121, 3-(2-(((4-fluorophenyl)sulfonyl)methyl)imidazo[1,2-a]pyridin-6-yl)-5-(trifluoromethyl)-1,2,4-oxadiazole]: the pest or weed control at 500 ppm was at least 70%.
To `O=C(NC1CCCC1)c1cn2cc(-c3noc(C(F)(F)F)n3)ccc2n1` [Compound 67, N-cyclopentyl-6-(5-(trifluoromethyl)-1,2,4-oxadiazol-3-yl)imidazo[1,2-a]pyridine-2-carboxamide] belongs at least 70%.
